Measurements as given in patent US6488938B1, “Polylactic acid scleral plug” (Santen Pharmaceutical Co., Ltd., priority 1997, dated 2002).

Test: Release test of ganciclovir from scleral plug in phosphate buffered solution
Type: physicochemical
Details: phosphate buffered solution (0.1 M, pH 7.4)
Experimental: The scleral plug produced in Example 1 was shaken in a phosphate buffered solution (0.1 M, pH 7.4) to release a drug (ganciclovir). The release medium was collected at predetermined intervals and replaced with a new buffer. These operations were repeated. Absorbance of the release medium at 254 nm was measured with a spectrophotometer, and an amount of the released drug was determined.

Nc1nc(O)c2ncn(COC(CO)CO)c2n1 [ganciclovir]
decomposition of drug during the release test: does not decompose
